Experiment: Particle size distribution by laser diffraction
Assay type: physicochemical
From the text: When referred to herein, the term “optical diameter” indicates the size of a particle as measured by the Fraunhofer diffraction mode using a laser diffraction particle size analyzer equipped with a dry powder dispenser (e.g., Sympatec GmbH, Clasthal-Zellerfeld, Germany).
Suspending particles were manufactured by spray drying an emulsion of PFOB (perfluorooctyl bromide) and water stabilized by DSPC (1,2-Distearoyl-sn-Glycero-3-Phosphocholine). […] The particle size distribution of the suspending particles was determined by laser diffraction.
Active agent particles formed of budesonide, 16,17-(butylidenebis(oxy))-11,21-dihydroxy-(11-β,16-α)-pregna-1,4-diene-3,20-dione, were formed by micronizing budesonide using a jet mill. The particle size distribution of the budesonide (BD) was determined by laser diffraction.

Molecule	optical diameter exhibited by 50% by volume of the particles	optical diameter exhibited by 90% by volume of the particles
COc1ccc(CC(C)NCC(O)c2ccc(O)c(NC=O)c2)cc1.O=C(O)/C=C/C(=O)O (racemic) [formoterol fumarate, (±)-2-hydroxy-5-[(1RS)-1-hydroxy-2-[[(1RS)-2-(4-methoxyphenyl)-1-methylethyl]-amino]ethyl]formanilide fumarate]	smaller than 1.6 μm	smaller than 3.9 μm
albuterol sulfate	smaller than 1.5 μm	smaller than 3.3 μm
C[N+]1(C)CCC(OC(=O)C(O)(c2ccccc2)C2CCCC2)C1.[Br-] (stereo not drawn) [glycopyrrolate, Pyrrolidinium, 3-((cyclopentylhydroxyphenylacetyl)oxy)-1,1-dimethyl-, bromide]	smaller than 2.1 μm	smaller than 5 μm

Reference: patent US20240252440A1, “COMPOSITIONS, METHODS AND SYSTEMS FOR AEROSOL DRUG DELIVERY” (ASTRAZENECA PHARMACEUTICALS LP, priority 2021, published 2024)
